38 compounds from patent US20260083851A1 (AVILAR THERAPEUTICS, INC., priority 2022, published 2026) can be followed below.

Where two headings read alike, the source gives them in different places. Positions of bridges follow the written chain, without caps; N, C: chain ends. Non-standard residues stand in square brackets, D forms with d. Residues, ends and D or L forms follow the SMILES beside them. ξ: configuration not given here. ξPro(4-NH2) = NC1CNC(C(=O)O)C1

Test [1] concerns the target T1, ASGP receptor (biotinylated ASGPR) (Homo sapiens, UniProt P07306).
T1 construct: biotin (biotinylated)
T1 sequence (P07306 1-291): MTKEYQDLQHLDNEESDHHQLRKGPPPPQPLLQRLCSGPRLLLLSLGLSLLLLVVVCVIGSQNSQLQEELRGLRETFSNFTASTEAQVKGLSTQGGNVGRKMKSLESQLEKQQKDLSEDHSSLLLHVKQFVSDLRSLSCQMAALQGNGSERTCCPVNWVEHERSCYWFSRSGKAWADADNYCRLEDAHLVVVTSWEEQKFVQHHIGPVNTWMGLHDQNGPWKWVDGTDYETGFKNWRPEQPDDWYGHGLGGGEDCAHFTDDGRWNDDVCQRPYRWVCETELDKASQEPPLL
The test is classed as binding. The note with it: SPR.

For the next test, the target named is IgG. The test is described as follows: IgG SPR binding. The note with it: second table, read-out: IgG KD.
[2] abbreviates: Biacore 8K, 25° C., Table 1E, read-out: ASGPR KD.
The mark [3] stands for this setting: Biacore 8K, 25° C., Table 1E, numeric bound, read-out: ASGPR KD.
Setting [4] is: Table 2, read-out: ASGPR SPR Binding KD.

Usually Kd stands for the equilibrium constant for the complex coming apart.

In the case of `C[C@H]1O[C@H](C#N)[C@H](Oc2cccc(C(F)(F)F)n2)[C@@H](O)[C@H]1O` [A432], in test [1] (setting [2]), the dissociation constant (Kd) was below 10 µM.
As to `C[C@H]1O[C@H](C(C)(C)O)[C@H](Oc2cccc(C(F)(F)F)n2)[C@@H](O)[C@H]1O` [A433], the Kd in test [1] (setting [2]) was below 10 µM.
`C[C@H]1O[C@H](COc2cnccn2)[C@H](Oc2cncc(C(F)(F)F)n2)[C@@H](O)[C@H]1O` [A434]: in test [1] (setting [2]), the Kd was below 10 µM.
Take `C[C@H]1O[C@H](C2=CC3C(C2=O)[C@@H]2CC[C@H]3C2)[C@H](Oc2cccc(C(F)(F)F)n2)[C@@H](O)[C@H]1O` (some centres unmarked) [A435A]: in test [1] (setting [2]), the Kd is below 10 µM.
The same measure, in the same setting: to `C[C@H]1O[C@H](C2=CC3C(C2=O)[C@H]2CC[C@@H]3C2)[C@H](Oc2cccc(C(F)(F)F)n2)[C@@H](O)[C@H]1O` (some centres unmarked) [A435B] belongs below 10 µM.
On the same count and under the same terms, to `C[C@H]1O[C@H](C2=CC3C4CCC(C4)C3C2=O)[C@H](Oc2cccc(C(F)(F)F)n2)[C@@H](O)[C@H]1O` (some centres unmarked) [A435] belongs below 10 µM.
As to `C[C@H]1O[C@H](CO)[C@H](Oc2cncc(C(F)(F)F)n2)[C@@H](O)[C@H]1O` [A436], the Kd in test [1] (setting [3]) was above 30 µM.
For `C[C@H]1O[C@H](CO)[C@H](Oc2nccc(C(F)(F)F)n2)[C@@H](O)[C@H]1O` [A437], the dissociation constant (Kd) in test [1] (setting [2]) was in the range of 10 to 100 µM.
Still for that read-out and setting: in the case of `C[C@H]1O[C@H](CO)[C@H](Oc2cccc(C(F)(F)F)n2)[C@@H](O)[C@H]1O` [A438] it was below 10 µM; in that of `C[C@H]1O[C@H](CCc2ccncc2)[C@H](Oc2cccc(C(F)(F)F)n2)[C@@H](O)[C@H]1O` [A439], below 10 µM.
Regarding `C[C@H]1O[C@H](C(=O)NCCOCCOCC(=O)O)[C@H](Oc2cccc(C(F)(F)F)n2)[C@@H](O)[C@H]1O` [A440], the Kd in test [1] (setting [3]) was above 30 µM.
In the case of `C[C@H]1O[C@H](COc2cccnn2)[C@H](Oc2cccc(C(F)(F)F)n2)[C@@H](O)[C@H]1O` [A441], in test [1] (setting [2]), the Kd was below 10 µM.
The same measure, in the same setting: in the case of `C#Cc1ccc(OC[C@H]2O[C@H](C)[C@H](O)[C@H](O)[C@H]2Oc2cccc(C(F)(F)F)n2)nn1` [A442] it was below 10 µM.
Same read-out and setting: in the case of `C[C@H]1O[C@H](COc2cnc(C(=O)O)cn2)[C@H](Oc2cccc(C(F)(F)F)n2)[C@@H](O)[C@H]1O` [A443] it was below 10 µM.
For `C[C@H]1O[C@H](COc2ccc(C(=O)O)nn2)[C@H](Oc2cccc(C(F)(F)F)n2)[C@@H](O)[C@H]1O` [A444], the Kd in test [1] (setting [2]) was below 10 µM.
As to `C[C@H]1O[C@H](COc2cccc(C(F)(F)F)n2)[C@H](O)[C@@H](O)[C@H]1O` [A445], the Kd in test [1] (setting [2]) fell in the range of 10 to 100 µM.
On the same count and under the same terms, in the case of `C[C@H]1O[C@H](COc2ccncn2)[C@H](Oc2cccc(C(F)(F)F)n2)[C@@H](O)[C@H]1O` [A446] it was below 10 µM; in that of `C[C@H]1O[C@H](COc2ncccn2)[C@H](Oc2cccc(C(F)(F)F)n2)[C@@H](O)[C@H]1O` [A447], below 10 µM.
The same measure, in the same setting: in the case of `C[C@H]1O[C@H](c2nnc(-c3ccccc3)o2)[C@H](Oc2cccc(C(F)(F)F)n2)[C@@H](O)[C@H]1O` [A448] it was below 10 µM; in that of `C[C@H]1O[C@H](COc2cnccn2)[C@H](Oc2cccc(C(F)(F)F)n2)[C@@H](O)[C@H]1O` [A449], below 10 µM; in that of `C[C@H]1O[C@H](COc2cccc(C(F)(F)F)n2)[C@H](Oc2cnccn2)[C@@H](O)[C@H]1O` [A450], below 10 µM.
The same measure, in the same setting: to `C[C@H]1O[C@H](c2nc(-c3ccccc3)no2)[C@H](Oc2cccc(C(F)(F)F)n2)[C@@H](O)[C@H]1O` [A451] belongs below 10 µM; to `O=C(O)c1cnc(OC[C@@]23CO[C@@H](O2)[C@H](Nc2cncc(C(F)(F)F)n2)[C@@H](O)[C@H]3O)cn1` [A452], below 10 µM.
Consider `O[C@@H]1[C@@H](Oc2cccc(C(F)(F)F)n2)CN(c2ccncn2)C[C@@H]1O` [Compound A248], for which, in test [1] (Biacore 8K, 25° C., Table 1D, read-out: ASGPR KD), the Kd is below 10 µM.
For the compound `O[C@@H]1[C@H](O)[C@@H](Oc2cccc(C(F)(F)F)n2)CO[C@@H]1CN1CCN(c2cnccn2)CC1` [Compound A248], the Kd in test [1] (Biacore 8K, 25° C., Table 1C, read-out: ASGPR KD) was below 10 µM.
For the compound `CC1(C)C(=O)c2ccc(-c3cnc(N4CCN5C(=O)N(CCOCCOCCOCC(=O)NC(COCCC(=O)NCCOCCOCCOCCOC[C@H]6OC[C@H](Nc7cncc(C(F)(F)F)n7)[C@@H](O)[C@H]6O)COCCC(=O)NCCOCCOCCOCCOC[C@H]6OC[C@H](Nc7cncc(C(F)(F)F)n7)[C@@H](O)[C@H]6O)C[C@@H]5C4)nc3)nc2N1Cc1cccnc1C#N` [compound 19], in test [1] (setting [4]), the dissociation constant Kd is below 0.1 µM.
On the same count and under the same terms, in the case of `CC1(C)C(=O)c2ccc(-c3cnc(N4CCN5C(=O)N(CCCNC(=O)c6ccc7c(c6)C(F)(F)c6cc(C(=O)NC[C@H]8OC[C@H](Nc9cncc(C(F)(F)F)n9)[C@@H](O)[C@H]8O)ccc6-7)C[C@@H]5C4)nc3)nc2N1Cc1cccnc1C#N` [compound 20] it was below 0.1 µM; in that of `O=C(CCOCC(COCCC(=O)NC[C@H]1OC[C@H](Nc2cncc(C(F)(F)F)n2)[C@@H](O)[C@H]1O)NCC(=O)N1CCN(Cc2ccc(-c3c[nH]c4ccncc34)c(OCCc3ccc(-c4cccc5ccncc45)cc3)c2)CC1)NC[C@H]1OC[C@H](Nc2cncc(C(F)(F)F)n2)[C@@H](O)[C@H]1O` [compound 21], below 0.1 µM; in that of `CC1(C)C(=O)c2ccc(-c3cnc(N4CCN5C(=O)N(CCOCCOCCOCC(=O)NC(COCCC(=O)NCCOCCOCCOCCOC[C@H]6OC[C@H](Nc7nccc(C(F)(F)F)n7)[C@@H](O)[C@H]6O)COCCC(=O)NCCOCCOCCOCCOC[C@H]6OC[C@H](Nc7nccc(C(F)(F)F)n7)[C@@H](O)[C@H]6O)C[C@@H]5C4)nc3)nc2N1Cc1cccnc1C#N` [compound 22], below 0.1 µM.
In the case of `CC(C)CC1NC(=O)C(Cc2cnc[nH]2)NC(=O)C(Cc2c[nH]c3ccccc23)NC(=O)C(C)NC(=O)C2CSSCC(NC(=O)C(Cc3c[nH]c4ccccc34)NC(=O)C(C(C)C)NC(=O)C(CC(C)C)NC(=O)C(CCC(=O)O)NC(=O)CNC1=O)C(=O)NC(C(C)O)C(=O)N1CCCC1C(=O)N1CC(N)CC1C(=O)NC(C)C(=O)N2` (centres unmarked) [compound 54] (cyclo(GELVWCTP[ξPro(4-NH2)]ACAWHL); disulfide 6-11; configuration not given here), the Kd at IgG was below 100 nM.
Still for that read-out and setting: to `CC(C)CC1NC(=O)C(Cc2cnc[nH]2)NC(=O)C(Cc2c[nH]c3ccccc23)NC(=O)C(C)NC(=O)C2CSSCC(NC(=O)C(Cc3c[nH]c4ccccc34)NC(=O)C(C(C)C)NC(=O)C(CC(C)C)NC(=O)C(CCC(=O)O)NC(=O)CNC1=O)C(=O)NC(C(C)O)C(=O)N1CCCC1C(=O)N1CC(N)CC1C(=O)NC(CC(N)=O)C(=O)N2` (centres unmarked) [compound 55] (cyclo(GELVWCTP[ξPro(4-NH2)]NCAWHL); disulfide 6-11; configuration not given here) belongs below 100 nM; to `CC(C)CC1NC(=O)C(Cc2cnc[nH]2)NC(=O)C(Cc2c[nH]c3ccccc23)NC(=O)C(C)NC(=O)C2CSSCC(NC(=O)C(Cc3c[nH]c4ccccc34)NC(=O)C(C(C)C)NC(=O)C(CC(C)C)NC(=O)C(CCC(=O)O)NC(=O)CNC1=O)C(=O)NC(C(C)O)C(=O)N1CCCC1C(=O)N1CC(N)CC1C(=O)NC(CC(=O)O)C(=O)N2` (centres unmarked) [compound 56], below 100 nM.
Still for that read-out and setting: in the case of `CC(C)CC1NC(=O)C(Cc2cnc[nH]2)NC(=O)C(Cc2c[nH]c3ccccc23)NC(=O)C(C)NC(=O)C2CSSCC(NC(=O)C(Cc3c[nH]c4ccccc34)NC(=O)C(C(C)C)NC(=O)C(CC(C)C)NC(=O)C(CCC(=O)O)NC(=O)CNC1=O)C(=O)NC(C(C)O)C(=O)N1CCCC1C(=O)N1CC(N)CC1C(=O)NC(CC(=O)O)C(=O)N2` (centres unmarked) [compound 58] it was below 100 nM; in that of `CC(C)CC1NC(=O)C(C)NC(=O)CNC(=O)C(CC(C)C)NC(=O)C(Cc2cnc[nH]2)NC(=O)C(Cc2c[nH]c3ccccc23)NC(=O)C(C)NC(=O)C2CSSCC(NC(=O)C(Cc3c[nH]c4ccccc34)NC(=O)C(C(C)C)NC1=O)C(=O)NC(C(C)O)C(=O)N1CCCC1C(=O)N1CC(N)CC1C(=O)NC(CC(=O)O)C(=O)N2` (centres unmarked) [compound 59] (cyclo(GALVWCTP[ξPro(4-NH2)]DCAWHL); disulfide 6-11; configuration not given here), below 100 nM.
The same measure, in the same setting: to `CC(C)CC1NC(=O)C(Cc2cnc[nH]2)NC(=O)C(Cc2c[nH]c3ccccc23)NC(=O)C(C)NC(=O)C2CSSCC(NC(=O)C(Cc3c[nH]c4ccccc34)NC(=O)C(C(C)C)NC(=O)C(CC(C)C)NC(=O)C(CCC(N)=O)NC(=O)CNC1=O)C(=O)NC(C(C)O)C(=O)N1CCCC1C(=O)N1CC(N)CC1C(=O)NC(CC(=O)O)C(=O)N2` (centres unmarked) [compound 60] (cyclo(GQLVWCTP[ξPro(4-NH2)]DCAWHL); disulfide 6-11; configuration not given here) belongs below 100 nM; to `CC(C)CC1NC(=O)C(Cc2cnc[nH]2)NC(=O)C(Cc2c[nH]c3ccccc23)NC(=O)C(C)NC(=O)C2CSSCC(NC(=O)C(Cc3c[nH]c4cc(Cl)ccc34)NC(=O)C(C(C)C)NC(=O)C(CC(C)C)NC(=O)C(CCC(=O)O)NC(=O)CNC1=O)C(=O)NC(C(C)O)C(=O)N1CCCC1C(=O)N1CC(N)CC1C(=O)NC(CC(=O)O)C(=O)N2` (centres unmarked) [compound 61], below 100 nM.
Consider `CC(C)CC1NC(=O)C(Cc2cnc[nH]2)NC(=O)C(Cc2c[nH]c3ccccc23)NC(=O)C(C)NC(=O)C2CSSCC(NC(=O)C(Cc3c[nH]c4ccc(Cl)cc34)NC(=O)C(C(C)C)NC(=O)C(CC(C)C)NC(=O)C(CCC(=O)O)NC(=O)CNC1=O)C(=O)NC(C(C)O)C(=O)N1CCCC1C(=O)N1CC(N)CC1C(=O)NC(CC(=O)O)C(=O)N2` (centres unmarked) [compound 62], for which the Kd on IgG is below 100 nM.
Still for that read-out and setting: to `CC(C)CC1NC(=O)C(Cc2cnc[nH]2)NC(=O)C(Cc2c[nH]c3ccccc23)NC(=O)C(C)NC(=O)C2CSSCC(NC(=O)C(Cc3c[nH]c4ccccc34)NC(=O)C(C(C)C)NC(=O)C(CC(C)C)NC(=O)C(CCC(=O)O)NC(=O)CNC1=O)C(=O)NC(C(C)O)C(=O)N1CCCC1C(=O)N1CC(N)CC1C(=O)NC(CC(=O)O)C(=O)N2` (centres unmarked) [compound 63] belongs below 100 nM.
